Data on 9 molecules can be found in PubChem BioAssay (NCI).

Structures are written as SMILES.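 Each compound was tested at five concentrations against cells in 96-well plates for 48 hours. Abbreviation: GI50, concentration required for 50% inhibition of growth. At the TGI there is no net growth.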 A value given as a limit tells only on which side of the number the result lay.

Some test systems named below: HT29 colon; CAKI-1 renal; NCI/ADR-RES ovarian; SF-295 CNS; UO-31 renal; HCT-116 colon; HCT-15 colon; NCI-H226 lung.
Holding throughout (experiment): NCI-60 cell line screen, 48 h

Turning to `CN(Cc1ccc(C(F)(F)F)cc1)CC(O)C(=O)Nc1ccc(Cl)cc1` (stereo unspecified), the GI50 with HT29 colon is 1390 nM; in the test on CAKI-1 renal, 1.37 µM; in the test with NCI/ADR-RES ovarian it was 1580 nM; in the test on SF-295 CNS, 1.63 µM; in the test with UO-31 renal it was 1290 nM; in the test with HCT-116 colon, 1120 nM. Moreover, the GI50 was 1.28 µM in the test with HCT-15 colon and 1.83 µM with NCI-H226 lung. The TGI worked out at 2.77 µM in the test with HT29 colon; 2.83 µM in the test with CAKI-1 renal; 3.02 µM in the test on NCI/ADR-RES ovarian; 3.08 µM in the test on SF-295 CNS; 2.65 µM in the test with UO-31 renal; 2.6 µM with HCT-116 colon. Moreover, the results for the TGI with HCT-15 colon and with NCI-H226 lung were 2.61 µM and 3.7 µM, respectively.
Regarding `CCCn1cnc2c(SCC(=O)O)nc(N)nc21`, the TGI with HT29 colon, in the test on CAKI-1 renal, in the test on NCI/ADR-RES ovarian, with SF-295 CNS, in the test on UO-31 renal and in the test with HCT-116 colon was > 100 µM each time. Also, the TGI with HCT-15 colon and in the test on NCI-H226 lung was > 100 µM throughout.
Consider `NCCCCC1NC(=O)C(CC(=O)O)NC(=O)CNC(=O)C(CCCN=C(N)N)NC(=O)C(N)CSSCC(C(=O)O)NC(=O)C(CC(=O)O)NC(=O)C2CCCN2C(=O)CNC1=O` (stereo unspecified), for which the GI50 with HT29 colon is > 100000 nM; in the test with CAKI-1 renal it was 65.4 µM; with NCI/ADR-RES ovarian, > 100000 nM; in the test with SF-295 CNS it was > 100 µM; with UO-31 renal it was > 100000 nM; in the test with HCT-116 colon it was > 100000 nM. The GI50 in the test on HCT-15 colon and in the test on NCI-H226 lung was > 100 µM in each case. The TGI in the test on HT29 colon, with CAKI-1 renal, in the test on NCI/ADR-RES ovarian, in the test with SF-295 CNS, in the test with UO-31 renal and with HCT-116 colon was > 100 µM in each case. For the same molecule, the TGI in the test on HCT-15 colon and in the test with NCI-H226 lung was > 100 µM each time.
For the molecule `Cc1ccc2nc(-c3ccc(OCC(=O)N=Nc4c(O)[nH]c5ccccc45)cc3)[nH]c2c1`, the GI50 in the test with HT29 colon is 2430 nM; in the test with CAKI-1 renal, 2.8 µM; in the test on NCI/ADR-RES ovarian, > 100000 nM; in the test with SF-295 CNS, 19.4 µM; with UO-31 renal, 82400 nM; in the test with HCT-116 colon, 2260 nM. For the same molecule, the GI50 is 8.69 µM in the test on HCT-15 colon and 11.2 µM in the test with NCI-H226 lung. In addition, the TGI in the test with HT29 colon is 6.27 µM; in the test with CAKI-1 renal, 10.2 µM; in the test with NCI/ADR-RES ovarian, > 100 µM; in the test with SF-295 CNS, 49.7 µM; in the test on UO-31 renal, > 100 µM; in the test on HCT-116 colon, 5.35 µM. Moreover, the TGI in the test with HCT-15 colon was > 100 µM; in the test on NCI-H226 lung, 56.1 µM.
As to `O=C(/C=C/c1ccc(C(F)(F)F)cc1)Nc1ccc(C=C2c3ccccc3C(=O)c3ccccc32)cc1`, the GI50 in the test with HT29 colon is 4560 nM; in the test on CAKI-1 renal it was 3.39 µM; in the test on NCI/ADR-RES ovarian, 2860 nM; with SF-295 CNS, 4.24 µM; in the test on UO-31 renal it was 8470 nM; in the test on HCT-116 colon it was 4000 nM. Also, the GI50 in the test with HCT-15 colon is 4.18 µM; in the test with NCI-H226 lung it was 14.2 µM. The TGI is > 100 µM in the test with HT29 colon; > 100 µM with CAKI-1 renal; 30.9 µM with NCI/ADR-RES ovarian; > 100 µM in the test on SF-295 CNS; > 100 µM in the test on UO-31 renal; > 100 µM in the test with HCT-116 colon. In addition, the TGI in the test on HCT-15 colon and in the test on NCI-H226 lung was > 100 µM throughout.
Take `CCN(Cc1cc(F)ccc1F)c1ccc(CO)c(Cl)c1`: the GI50 with HT29 colon was 4100 nM; with CAKI-1 renal, 0.416 µM; in the test with NCI/ADR-RES ovarian it was 13600 nM; in the test on SF-295 CNS, 0.283 µM; in the test on UO-31 renal, 2020 nM; with HCT-116 colon, 55.3 nM. For the same molecule, the GI50 in the test on HCT-15 colon was 12.8 µM; with NCI-H226 lung it was 0.0484 µM. Moreover, the TGI with HT29 colon was 17.7 µM; in the test with CAKI-1 renal, 5.1 µM; in the test on NCI/ADR-RES ovarian, 39.9 µM; with SF-295 CNS it was 13.2 µM; with UO-31 renal, 23.4 µM; in the test on HCT-116 colon, 11.7 µM. The TGI in the test on HCT-15 colon amounted to 32.3 µM; in the test with NCI-H226 lung it was 0.178 µM.
Consider `O=C1C2=C(C(=O)c3cnccc31)C1C=CC2CC1` (stereo unspecified), for which the GI50 in the test with HT29 colon is 2580 nM; with CAKI-1 renal, 3.57 µM; with NCI/ADR-RES ovarian, 1510 nM; with SF-295 CNS, 5.36 µM; in the test with UO-31 renal, 1950 nM; in the test on HCT-116 colon, 1650 nM. Moreover, the GI50 in the test on HCT-15 colon was 2.28 µM; in the test on NCI-H226 lung, 5.74 µM. The TGI stood at 5.7 µM in the test with HT29 colon; 9.33 µM in the test on CAKI-1 renal; 3.5 µM in the test on NCI/ADR-RES ovarian; 12.4 µM in the test on SF-295 CNS; 3.69 µM in the test on UO-31 renal; 3.03 µM in the test with HCT-116 colon. Also, the TGI is 4.94 µM in the test on HCT-15 colon and 16.2 µM with NCI-H226 lung.
Regarding `CC(C)c1nc(N(C)S(C)(=O)=O)nc(-c2ccc(F)cc2)c1/C=C/[C@@H](O)C[C@@H](O)CC(=O)O`, the GI50 with HT29 colon was > 100000 nM; with CAKI-1 renal, 67.7 µM; in the test on NCI/ADR-RES ovarian, 48600 nM; in the test on SF-295 CNS, 32.7 µM; in the test on UO-31 renal, > 100000 nM; in the test on HCT-116 colon, 59500 nM. Besides, the results for the GI50 in the test on HCT-15 colon and with NCI-H226 lung were 57.4 µM and > 100 µM, respectively. In addition, the TGI in the test on HT29 colon, in the test on CAKI-1 renal, in the test on NCI/ADR-RES ovarian, with SF-295 CNS, in the test with UO-31 renal and in the test with HCT-116 colon was > 100 µM throughout. Moreover, the TGI in the test on HCT-15 colon and in the test on NCI-H226 lung was > 100 µM throughout.
For `CCN1CCN(Cc2ccc(NC(=O)Nc3nc4ccc(Oc5ccnc(C(=O)NC)c5)cc4s3)cc2C(F)(F)F)CC1`, the GI50 was 1270 nM in the test with HT29 colon; 1.94 µM in the test on CAKI-1 renal; 1950 nM with NCI/ADR-RES ovarian; 1.82 µM in the test with SF-295 CNS; 1830 nM with UO-31 renal; 1730 nM in the test with HCT-116 colon. For the same molecule, the GI50 in the test with HCT-15 colon was 1.65 µM; with NCI-H226 lung, 1.45 µM. Also, the TGI in the test with HT29 colon came to 3.42 µM; in the test with CAKI-1 renal it was 4.15 µM; in the test with NCI/ADR-RES ovarian, 4.21 µM; with SF-295 CNS, 3.66 µM; in the test with UO-31 renal, 3.4 µM; in the test on HCT-116 colon, 3.45 µM. Also, the figures for the TGI in the test on HCT-15 colon and with NCI-H226 lung were 3.38 µM and 3.16 µM, respectively.
